{"source": "patent US20060281719A1", "about": "“Oestrogen-17-sulphamates as inhibitors of steroid sulphatase” (priority 2000, published 2006)", "key": {"Plate assay % inhibition": {"test": "Plate assay % inhibition", "format": "cell-based", "details": "-ve % means stimulation"}, "steroid sulphatase (STS)": {"molecular_target": "T1, steroid sulphatase (STS) (Homo sapiens, UniProt P08842)", "T1 sequence (P08842 22-583)": "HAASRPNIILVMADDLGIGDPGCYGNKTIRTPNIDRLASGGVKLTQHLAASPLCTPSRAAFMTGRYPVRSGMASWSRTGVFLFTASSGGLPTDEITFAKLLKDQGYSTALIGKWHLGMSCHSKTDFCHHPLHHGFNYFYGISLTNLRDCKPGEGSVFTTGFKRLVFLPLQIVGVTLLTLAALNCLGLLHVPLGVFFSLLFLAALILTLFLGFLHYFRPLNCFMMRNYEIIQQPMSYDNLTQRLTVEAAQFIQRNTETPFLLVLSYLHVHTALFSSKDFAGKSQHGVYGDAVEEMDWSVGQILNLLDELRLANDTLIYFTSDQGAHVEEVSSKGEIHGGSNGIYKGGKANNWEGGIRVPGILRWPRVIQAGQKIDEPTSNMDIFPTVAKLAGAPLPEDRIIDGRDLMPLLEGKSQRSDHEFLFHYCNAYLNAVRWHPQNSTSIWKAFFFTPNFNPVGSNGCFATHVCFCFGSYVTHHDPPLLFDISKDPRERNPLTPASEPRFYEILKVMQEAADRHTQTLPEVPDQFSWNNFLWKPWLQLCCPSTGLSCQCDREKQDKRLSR", "details": "compared with EMATE; cited from earlier work"}, "[1]": {"details": "cited from earlier work"}, "liver E1-STS [2]": {"molecular_target": "T2, liver E1-STS (Rattus norvegicus, UniProt P15589)", "T2 construct": "samples of liver tissue were removed and immediately frozen on solid carbon dioxide; from tissue; host or cells: rat liver (female Wistar rats, dosed p.o.)", "T2 sequence (P15589 20-577)": "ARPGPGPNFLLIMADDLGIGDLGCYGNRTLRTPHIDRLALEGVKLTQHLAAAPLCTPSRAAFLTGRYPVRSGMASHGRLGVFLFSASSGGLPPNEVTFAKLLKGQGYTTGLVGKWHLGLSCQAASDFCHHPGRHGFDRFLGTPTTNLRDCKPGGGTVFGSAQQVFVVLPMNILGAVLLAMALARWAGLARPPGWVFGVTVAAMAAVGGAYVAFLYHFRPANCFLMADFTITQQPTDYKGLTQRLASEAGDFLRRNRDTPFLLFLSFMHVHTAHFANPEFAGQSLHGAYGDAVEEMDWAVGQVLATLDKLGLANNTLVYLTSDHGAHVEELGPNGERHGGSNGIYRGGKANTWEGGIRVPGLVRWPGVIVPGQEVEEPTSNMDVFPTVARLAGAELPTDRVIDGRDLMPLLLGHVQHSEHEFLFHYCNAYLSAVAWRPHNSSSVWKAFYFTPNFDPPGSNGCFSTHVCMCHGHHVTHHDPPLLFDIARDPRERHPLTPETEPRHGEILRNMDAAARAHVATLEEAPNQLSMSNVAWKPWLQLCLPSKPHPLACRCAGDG", "details": "administered either orally or subcutaneously; cited from earlier work"}, "[3]": {"molecular_target": "T3, oestrone sulphatase (E1-STS) (Homo sapiens, UniProt P08842)", "T3 sequence (P08842 22-583)": "T1 sequence (P08842 22-583)", "details": "0.1 mM; cited from earlier work"}, "[4]": {"molecular_target": "T4, dehydroepiandrosterone sulphatase (DHA-STS) (Rattus norvegicus, UniProt P15589)", "T4 construct": "host or cells: rat liver", "T4 sequence (P15589 20-577)": "T2 sequence (P15589 20-577)", "details": "administered either orally or subcutaneously; cited from earlier work"}, "[5]": {"molecular_target": "T3, oestrone sulphatase (E1-STS)", "test": "Inhibition of steroid sulphatase activity in placental microsomes", "format": "biochemical", "design": "from tissue; host or cells: human term placenta (microsomal preparation)"}, "[6]": {"test": "pKa determination by potentiometric titration", "details": "water/methanol (1:1)", "method": "A 5 mM solution of 4,4′-dihydroxybenzophenone or bis-(4-hydroxyphenyl)methane in water/methanol (1:1) at room temperature was prepared and its pH read (WPA Linton Cambridge UK, CCMD625 pH meter). The titrant (50 mM KOH) was then added in equal portions. The pH was recorded after each addition when equilibrium has been reached (after stirring)."}, "[7]": {"details": "48% v/v aq. Ethanol, literature value; cited from earlier work"}, "[8]": {"molecular_target": "T3, oestrone sulphatase (E1-STS)", "test": "Inhibition of steroid sulphatase (E1-STS) activity in intact MCF-7 breast cancer cells", "format": "cell-based"}, "liver E1-STS [9]": {"molecular_target": "T2, liver E1-STS", "test": "In vivo inhibition of rat liver steroid sulphatase", "description": "Inhibition of Oestrone Sulphatase Activity In Vivo\nThe compounds of the present invention may be studied using an animal model, in particular in ovariectomised rats. In this model compounds which are oestrogenic stimulate uterine growth.\nThe compound (0.1 mg/Kg/day for five days) is administered orally to rats with another group of animals receiving vehicle only (propylene glycol). At the end of the study samples of liver tissue were obtained and oestrone sulphatase activity assayed using 3H oestrone sulphate as the substrate as previously described (see PCT/GB95/02638).\nFor in vivo studies, female Wistar rats (Harlan Olac, Bicester, Oxon, United Kingdom) were used. Groups of rats, with three rats in each group for each experiment, were treated p.o. with vehicle (propylene glycol) or drug (1 mg and 10 mg/kg) with animals receiving a single dose. Animals were killed, using an approved procedure, 24 h after drug administration to assess the extent of steroid sulphatase inhibition. For this, samples of liver tissue were removed and immediately frozen on solid carbon dioxide and stored at −20° C. until assayed."}, "[10]": {"details": "in vivo; cited from earlier work"}}, "note": "Like-named read-outs stand apart in the source and are kept apart here."}
{"molecule": "COc1cc2c(cc1OS(N)(=O)=O)CC[C@@H]1[C@@H]2CC[C@]2(C)C(=O)CC[C@@H]12", "note": "[Compound 2-MeOEMATE, 2-methoxyoestrone-3-O-sulphamate, reference compound]", "values": [{"measurement": "Plate assay % inhibition", "setting": "Plate assay % inhibition; 0.1 μM", "value": 15, "unit": "%"}, {"measurement": "Plate assay % inhibition", "setting": "Plate assay % inhibition; 1 μM", "value": 42, "unit": "%"}, {"measurement": "Plate assay % inhibition", "setting": "Plate assay % inhibition; 10 μM", "value": 88, "unit": "%"}, {"measurement": "potency as a steroid sulphatase inhibitor", "setting": "steroid sulphatase (STS)", "value": "equipotent with EMATE"}, {"measurement": "oestrogenicity", "setting": "[1]; rat, in vivo", "value": "devoid of oestrogenicity"}]}
{"molecule": "CC12CCC3c4ccc(OS(N)(=O)=O)cc4CCC3C1CCC2=O", "note": "(stereo not drawn) [EMATE, oestrone-3-sulphamate]", "values": [{"measurement": "inhibition of rat liver E1-STS activity", "setting": "liver E1-STS [2]", "value": 99, "unit": "%"}, {"measurement": "inhibition of E1-STS activity in intact MCF-7 cells", "setting": "[3]", "value": "more than 99%"}, {"measurement": "inhibition of rat liver DHA-STS activity", "setting": "[4]", "value": 99, "unit": "%"}, {"measurement": "oral uterotrophic activity relative to oestradiol", "setting": "[1]; rats, oral", "value": 100, "unit": "times"}, {"measurement": "inhibition at 1 µM", "setting": "[5]; 1 μM, -ve % means stimulation, read-out: Placental Microcsomes % inhibition", "value": 98, "unit": "%"}]}
{"molecule": "O=C(c1ccc(O)cc1)c1ccc(O)cc1", "note": "[4,4′-dihydroxybenzophenone]", "values": [{"measurement": "pKa", "setting": "[6]", "value": "9.11 ± 0.24"}]}
{"molecule": "Oc1ccc(Cc2ccc(O)cc2)cc1", "note": "[bis-(4-hydroxyphenyl)methane]", "values": [{"measurement": "pKa", "setting": "[7]", "value": 11.22}, {"measurement": "pKa", "setting": "physchem", "value": "11 ± 0.13"}]}
{"molecule": "NS(=O)(=O)Oc1ccc(C(=O)c2ccc(OS(N)(=O)=O)cc2)cc1", "note": "[Compound 3, Benzophenone-4,4′-O,O-bis-sulphamate]", "values": [{"measurement": "% Inhibition of E1-STS activity in MCF-7 cells", "setting": "[8]; 0.1 μM", "value": "71.41 ± 6.85", "unit": "%"}, {"measurement": "% Inhibition of E1-STS activity in MCF-7 cells", "setting": "[8]; 0.1 μM, listed as BENZOMATE", "value": "> 70", "unit": "%"}, {"measurement": "% Inhibition of E1-STS activity in MCF-7 cells", "setting": "[8]; 1 μM", "value": "95.64 ± 2.07", "unit": "%"}, {"measurement": "% Inhibition of E1-STS activity in MCF-7 cells", "setting": "[8]; 10 μM", "value": "98.69 ± 2.82", "unit": "%"}, {"measurement": "inhibition of rat liver E1-STS activity", "setting": "liver E1-STS [9]; 24 h after a single oral dose of 1 mg/kg", "value": 84, "unit": "%"}, {"measurement": "inhibition of rat liver E1-STS activity", "setting": "liver E1-STS [9]; 24 h after a single oral dose of 10 mg/kg", "value": 93, "unit": "%"}, {"measurement": "% Inhibition of E1-STS activity in placental microsomes", "setting": "[5]; 10 μM", "value": "98.17 ± 0.05", "unit": "%"}, {"measurement": "% Inhibition of E1-STS activity in placental microsomes", "setting": "[5]; 10 μM, listed as BENZOMATE", "value": "> 98", "unit": "%"}, {"measurement": "% Inhibition of E1-STS activity in placental microsomes", "setting": "[5]; 50 µM", "value": "99.03 ± 0.05", "unit": "%"}, {"measurement": "% Inhibition of E1-STS activity in placental microsomes", "setting": "[5]; 100 µM", "value": "99.2 ± 0.0", "unit": "%"}]}
{"molecule": "C[C@]12CC[C@@H]3c4ccc(OS(=O)(=O)O)cc4CC[C@H]3[C@@H]1CCC2=O", "note": "[Compound E1S, oestrone sulphate]", "values": [{"measurement": "half-life in blood", "setting": "[10]", "value": "10 to 12", "unit": "h"}]}
